Assay results: patent US9289403B2, “Use of modafinil to treat spasticity” (The Board of Trustees of the University of Arizona, priority 2007, dated 2016)
Entries after “also recorded” stand apart in the source; their conditions may differ.

Key:
[1] = tested on: H-reflex (hyper-reflexia) in spinally transected rats; test: H-reflex frequency-dependent depression in spinally transected rats; assay type: in vivo, rat; conditions: no exercise, 3 mg/Kg/day modafinil p.o. for 30 days, measured 30 days after transection, compared with Tx-30, MBET 30 and control
Protocol: Adult female Sprague-Dawley rats (Harlan, 200-250 g, n=40) underwent a lower thoracic laminectomy under ketamine (60 mg/kg, i.m.) and xylazine (10 mg/kg, i.m.) anesthesia. A complete transection (Tx) of the spinal cord was made by aspiration and the transected ends of the cord retracted, producing a 2-3 mm cavity. Gelfoam was inserted into the cavity to facilitate hemostasis and the dura was closed over the Tx site. Muscle and skin were sutured in separate layers, and animals were provided with dextrose-saline (5%, 1 ml/100 g body weight, s.c.) to replace fluid lost during the surgical procedure. […] Animals were monitored for signs of urinary tract infection, and treatment with Baytril (enroflaxin 0.2 mg/day, i.m. for 10 days) was instituted as needed. […]
Stimulation of the tibial nerve under the calcaneal tendon produced two responses, an early M-wave (2 ms latency), produced by direct activation of motoneuronal axons in the tibial nerve, and a later H-reflex (8 ms latency), produced by activation of muscle afferents in the tibial nerve, which synapse monosynaptically on plantar motoneurons. The degree of stimulation that induced frequency-dependent depression of the H-reflex was determined. […] The change in the response at various frequencies was calculated as the percent of the response at 0.2 Hz in order to determine depression of the H-reflex as a function of stimulation frequency. […]

[2] = tested on: cortical cells, inferior olivary cells and thalamic reticular cells; conditions: cited from earlier work

In the case of `NC(=O)C[S+]([O-])C(c1ccccc1)c1ccccc1` (centres unmarked) [modafinil], the “H-reflex amplitude at stimulation frequencies from 0.2 to 10 Hz (habituation / hyper-reflexia)” value [1] is given as “as effective as passive exercise in normalizing exaggerated reflexes; also recorded: decreased (normalized) the H-reflex amplitude to the same extent as 30 days of exercise; also recorded: the reflexes were normalized; also recorded: effective in reducing hyper-reflexia after spinal transection” and the electrical coupling [2] is given as “increases electrical coupling”.
